Results published in US20240059703A1 (AMGEN INC., priority 2021, published 2024).

Experiments:
[1] = tested on: A549 (human lung carcinoma) cells; assay: Cell Viability Assay (CellTiter-Glo), A549; type: cell-based
Summary of the method: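 After a 72 h exposure to serial compound dilutions at 37° C, luminescent ATP content was measured with CellTiter-Glo. The cells were A549 or MIA PaCa-2, seeded at 1.67E+04 cells/mL in RPMI 1640 with 10% serum. Signals were normalized to DMSO controls and IC50 fitted with a 4-parameter logistic model.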

KRAS G12C = KRAS G12C (Homo sapiens (Human), UniProt P01116, C118A/G12C); assay: 2 h coupled exchange assay; type: biochemical; details: Avg 2 h Coupled exchange IC50, 2 h compound pre-incubation
KRAS G12C, sequence (P01116 other isoform, or with tags, fused parts or gaps G12C/C118A): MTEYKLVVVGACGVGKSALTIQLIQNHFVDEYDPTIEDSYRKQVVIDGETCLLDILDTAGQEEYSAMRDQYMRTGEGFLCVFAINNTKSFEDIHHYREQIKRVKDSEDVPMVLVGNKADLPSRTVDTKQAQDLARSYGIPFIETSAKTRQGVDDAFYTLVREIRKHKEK
Description: The term “2 h coupled exchange assay” or “20 h coupled exchange assay” as used herein refers to the assay described in the Section entitled “BIOLOGICAL EVALUATION.”

[2] = tested on: MIA PaCa-2 (human pancreatic carcinoma) cells; assay: Cell Viability Assay (CellTiter-Glo), MIA PaCa-2; type: cell-based
Description: Serially-diluted compound or DMSO was added to the cells, and plates were incubated at 37° C., 5% CO2 for 72 h. Cell viability was measured using a CellTiter-Glo® Luminescent Cell Viability Assay kit (Promega) according to the manufacturer's protocol. The luminescence signal of treated samples was normalized to DMSO control, and data were analyzed using a 4-parameter logistic model to calculate IC50 values.

[3] = SOS-mediated nucleotide exchange

Row | SMILES | IC50 ([1]; Homo sapiens, A549, 72 h) | IC50 (KRAS G12C; [3]) | IC50 ([2]; Homo sapiens, MIA PaCa-2, 72 h) | IC50 ([2]; 72 h) | IC50 ([1]; 72 h) | IC50 (KRAS G12C)
1 | C=CC(=O)N1CC2(CCN(c3nc4c(c(-c5cc(O)ccc5C)c3C#N)C[C@H]3C[C@@H]4C3)C2)C1 (single isomer, unassigned) [Example 13-126] | > 5 µM | 29 nM | > 5000 nM | – | – | –
2 | C=CC(=O)N1CC2(CCN(c3nc4c(c(-c5cc(O)ccc5C)c3C#N)COC(C)(C)C4)C2)C1 (single isomer, unassigned) [Example 13-128, 4-(5-hydroxy-2-methylphenyl)-7,7-dimethyl-2-(2-(2-propenoyl)-2,6-diazaspiro[3.4]octan-6-yl)-7,8-dihydro-5H-pyrano[4,3-b]pyridine-3-carbonitrile] | > 5 µM | 91 nM | > 5000 nM | – | – | –
3 | C=CC(=O)N1CC2(CCN(c3nc4c(c(-c5cc(O)cc6ccccc56)c3C#N)C[C@H]3C[C@@H]4C3(C)C)C2)C1 (single isomer, unassigned) [Example 13-129] | > 5 µM | 13 nM | 21 nM | – | – | –
4 | C=CC(=O)N1CC2(CCN(c3nc4c(c(-c5c(C)ccc6cnn(C)c56)c3C#N)[C@H]3C[C@@H](C4)C3)C2)C1 (single isomer, unassigned) [Example 13-133] | > 5 µM | 64 nM | 200 nM | – | – | –
5 | C=CC(=O)N1CC2(CCN(c3nc4c(c(-c5c(C)ccc6cnn(C)c56)c3C#N)CC[C@@H]3C[C@H]43)C2)C1 (single isomer, unassigned) [Example 13-136, (6a,7a)-4-(1,6-dimethyl-1H-indazol-7-yl)-2-(2-(2-propenoyl)-2,6-diazaspiro[3.4]octan-6-yl)-6,6a,7,7a-tetrahydro-5H-cyclopropa[h]quinoline-3-carbonitrile] | > 5 µM | 78 nM | 401 nM | – | – | –
6 | C=CC(=O)N1CC2(CCN(c3nc4c(c(-c5c(C)ccc6cnn(C)c56)c3C#N)CC[C@H]3C[C@@H]43)C2)C1 (single isomer, unassigned) [Example 13-137, (6a,7a)-4-(1,6-dimethyl-1H-indazol-7-yl)-2-(2-(2-propenoyl)-2,6-diazaspiro[3.4]octan-6-yl)-6,6a,7,7a-tetrahydro-5H-cyclopropa[h]quinoline-3-carbonitrile] | > 5 µM | 72 nM | 468 nM | – | – | –
7 | C=CC(=O)N1CC2(CCN(c3nc4c(c(-c5c(C)ccc6cnn(C)c56)c3C#N)CCC(C)(C)C4)C2)C1 (single isomer, unassigned) [Example 13-145, 4-(1,6-dimethyl-1H-indazol-7-yl)-7,7-dimethyl-2-(2-(2-propenoyl)-2,6-diazaspiro[3.4]octan-6-yl)-5,6,7,8-tetrahydro-3-quinolinecarbonitrile] | > 5 µM | 31 nM | – | 208 nM | – | –
8 | C=CC(=O)N1CC2(CCN(c3nc4c(c(-c5c(C)ccc6cnn(C)c56)c3C#N)CCC(C)(C)C4)C2)C1 (single isomer, unassigned) [Example 13-150, 4-(1,6-dimethyl-1H-indazol-7-yl)-7,7-dimethyl-2-(2-(2-propenoyl)-2,6-diazaspiro[3.4]octan-6-yl)-5,6,7,8-tetrahydro-3-quinolinecarbonitrile] | – | 2900 nM | – | 4020 nM | 6.73 µM | –
9 | C=CC(=O)N1CC2(CCN(c3nc4c(c(-c5c(N)c(Cl)cc(Cl)c5F)c3C#N)COC(C)(C)C4)C2)C1 (single isomer, unassigned) [Example 13-155, 4-(2-amino-3,5-dichloro-6-fluorophenyl)-7,7-dimethyl-2-(2-(2-propenoyl)-2,6-diazaspiro[3.4]octan-6-yl)-7,8-dihydro-5H-pyrano[4,3-b]pyridine-3-carbonitrile] | > 5 µM | 111 nM | – | 93 nM | – | –
10 | C=CC(=O)N1CC2(CCN(c3nc4c(c(-c5c(N)c(Cl)cc(Cl)c5F)c3C#N)COC(C)(C)C4)C2)C1 (single isomer, unassigned) [Example 13-156, 4-(2-amino-3,5-dichloro-6-fluorophenyl)-7,7-dimethyl-2-(2-(2-propenoyl)-2,6-diazaspiro[3.4]octan-6-yl)-7,8-dihydro-5H-pyrano[4,3-b]pyridine-3-carbonitrile] | – | 140000 nM | – | 5920 nM | 8.16 µM | –

Continued, values first:

Row | IC50 ([1]; Homo sapiens, A549, 72 h) | IC50 (KRAS G12C; [3]) | IC50 ([2]; Homo sapiens, MIA PaCa-2, 72 h) | IC50 ([2]; 72 h) | IC50 ([1]; 72 h) | IC50 (KRAS G12C) | SMILES
11 | > 5 µM | 17 nM | 9 nM | – | – | – | C=CC(=O)N1CC2(CCN(c3nc4c(c(-c5c(C)ccc6[nH]ncc56)c3C#N)[C@@H]3CC[C@H]4C3)C2)C1 (single isomer, unassigned) [Example 14-4]
12 | 5.57 µM | 14 nM | 6 nM | – | – | – | C=CC(=O)N1CC2(CCN(c3nc4c(c(-c5c(C)ccc6[nH]ncc56)c3C#N)[C@@H]3CC[C@H]4C3)C2)C1 (single isomer, unassigned) [Example 14-7]
13 | > 5 µM | 38 nM | 149 nM | – | – | – | C=CC(=O)N1CC2(CCN(c3nc4c(c(-c5cc(O)ccc5C)c3C#N)[C@@H]3CC[C@H]4C3)C2)C1 (single isomer, unassigned) [Example 14-11]
14 | > 5 µM | 49 nM | 68 nM | – | – | – | C=CC(=O)N1CC2(CCN(c3nc4c(c(-c5c(C)ccc6cnn(C)c56)c3C#N)[C@@H]3CC[C@H]4C3)C2)C1 (single isomer, unassigned) [Example 14-15]
15 | > 5 µM | 22 nM | 51 nM | – | – | – | C=CC(=O)N1CC2(CCN(c3nc4c(c(-c5c(C)ccc6cnn(C)c56)c3C#N)[C@@H]3CC[C@H]4C3)C2)C1 (single isomer, unassigned) [Example 14-17]
16 | > 5 µM | – | 143 nM | – | – | 58 nM | C=CC(=O)N1CC2(CCN(c3nc4c(c(-c5cccc6cn[nH]c56)c3C#N)C[C@H]3C[C@@H]4C3(C)C)C2)C1 (single isomer, unassigned) [Example 14-29]
17 | > 5 µM | – | 105 nM | – | – | 106 nM | C=CC(=O)N1CC2(CCN(c3nc4c(c(-c5cc(O)ccc5C)c3C)COC(C)(C)C4)C2)C1 (single isomer, unassigned) [Example 14-31, (M)-1-(6-(4-(5-hydroxy-2-methylphenyl)-3,7,7-trimethyl-7,8-dihydro-5H-pyrano[4,3-b]pyridin-2-yl)-2,6-diazaspiro[3.4]octan-2-yl)-2-propen-1-one]
18 | > 5 µM | – | 32 nM | – | – | 44 nM | C=CC(=O)N1CC2(CCN(c3nc4c(c(-c5c(C)ccc6[nH]ncc56)c3C)COC(C)(C)C4)C2)C1 (single isomer, unassigned) [Example 14-33, (P)-1-(6-(3,7,7-trimethyl-4-(5-methyl-1H-indazol-4-yl)-7,8-dihydro-5H-pyrano[4,3-b]pyridin-2-yl)-2,6-diazaspiro[3.4]octan-2-yl)-2-propen-1-one]
19 | > 5 µM | – | 123 nM | – | – | 63 nM | C=CC(=O)N1CC2(CCN(c3nc4c(c(-c5ccc(F)c6sc(N)nc56)c3C)COC(C)(C)C4)C2)C1 (single isomer, unassigned) [Example 14-38, (P)-1-(6-(4-(2-amino-7-fluoro-1,3-benzothiazol-4-yl)-3,7,7-trimethyl-7,8-dihydro-5H-pyrano[4,3-b]pyridin-2-yl)-2,6-diazaspiro[3.4]octan-2-yl)-2-propen-1-one]
